According to patent US8754220B2, “Quinolizidinone carboxamide M1 receptor positive allosteric modulators” (Merck Sharp & Dohme Corp., priority 2009, dated 2014):
Where two headings read alike, the source gives them in different places.

Biological target: T1, acetylcholine muscarinic M1 receptor (CHOnfat/hM1 cells) (Homo sapiens, UniProt P11229)
T1 construct: expressed in transfected cells; host or cells: CHOnfat (CHO cells; selected with Geneticin)
T1 sequence (P11229 1-460): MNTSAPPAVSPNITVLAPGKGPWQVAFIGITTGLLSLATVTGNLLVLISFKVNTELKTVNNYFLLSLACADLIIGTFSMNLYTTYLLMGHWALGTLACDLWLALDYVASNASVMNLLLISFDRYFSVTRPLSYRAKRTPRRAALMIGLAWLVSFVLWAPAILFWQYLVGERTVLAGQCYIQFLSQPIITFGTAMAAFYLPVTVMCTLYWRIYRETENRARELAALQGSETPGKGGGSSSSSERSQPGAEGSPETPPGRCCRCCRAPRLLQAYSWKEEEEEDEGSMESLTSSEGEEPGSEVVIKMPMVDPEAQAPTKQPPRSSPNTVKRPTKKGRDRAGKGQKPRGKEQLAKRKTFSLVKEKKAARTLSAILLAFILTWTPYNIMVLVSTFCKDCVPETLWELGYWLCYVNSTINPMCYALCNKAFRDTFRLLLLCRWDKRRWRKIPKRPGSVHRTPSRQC
Assay: FLIPR intracellular calcium assay for M1 positive allosteric modulator activity (acetylcholine EC20)
Assay type: cell-based
Experimental: The assay studies the effect of one or several concentrations of test compounds on basal or acetylcholine-stimulated Ca^2+ levels using FLIPR.
Compounds are prepared and subjected to a preincubation period of 4 min. Thereafter, a single EC20 concentration of acetylcholine is added to each well (3 nM final). The intracellular Ca^2+ level of each sample is measured and compared to an acetylcholine control to determine any modulatory activity.
Cells: CHOnfat/hM1, hM2, hM3 or hM4 cells are plated 24 hr before the assay at a density of 18,000 cells/well (100 μL) in a 384 well plate. CHOnfat/hM1 and CHOnfat/hM3 Growth Medium: 90% DMEM (Hi Glucose); 10% HI FBS; 2 mM L-glutamine; 0.1 mM NEAA; Pen-Strep; and 1 mg/ml Geneticin, are added. For M2Gqi5CHOnfat and M4Gqi5CHOnfat cells, an additional 600 μg/ml hygromycin is added.
Equipment: 384 well plate, 120 μL addition plate; 96-well Whatman 2 ml Uniplate Incubator, 37° C., 5% CO2; Skatron EMBLA-384 Plate Washer; Multimek Pipetting System; Genesis Freedom 200 System; Mosquito System; Temo Nanoliter Pipetting System; and FLIPR^384 Fluorometric Imaging Plate Reader System are used.
Buffers. Assay Buffer: Hanks Balanced Salt Solution, with 20 mM Hepes, 2.5 mM Probenecid (Sigma P-8761) first dissolved in 1 N NaOH, 1% Bovine Serum Albumin (Sigma A-9647). Dye Loading Buffer: Assay Buffer plus 1% Fetal Bovine Serum and Fluo-4AM/Pluronic Acid Mixture. 2 mM Fluo-4AM ester stock in DMSO (Molecular Probes F-14202) Concentration of 2 μM in buffer for a final concentration of 1 μM in Assay. 20% Pluronic Acid Solution stock, with concentration of 0.04% in Buffer, 0.02% in Assay.
65 μL of 2 mM Fluo-4AM are mixed with 130 μL of 20% Pluronic Acid. The resulting solution and 650 μL FBS is added to the assay buffer for a total volume of 65 mL. Positive Controls: 4-Br-A23187: 10 mM in DMSO; final concentration 10 μM. Acetylcholine: 10 mM in water, working stock at both 20 μM and 30 μM in assay buffer, final concentration of 10 μM. This is used to check the maximum stimulation of the CHOK1/hM1 cells. 20 μM (2×) acetylcholine is added in the preincubation part of the assay, and the 30 μM (3×) stock is added in the second part. (EC20) Acetylcholine: 10 mM in water, working stock of 9 nM (3×), and final concentration in assay is 3 nM. This is used after the preincubation with test compounds. Addition of the EC20 Acetylcholine to each well with a test compound will ascertain any modulator activity. 24 wells contain 3 nM Acetylcholine alone as a control.
Screening Plate: Compounds are titrated in 96-well plates (columns 2-11), 100% DMSO, started at a concentration of 15 mM (150× stock concentration), and 3-fold serial dilutions using Genesis Freedom200 System. Four 96-well plates are combined into a 384-well plate using Mosquito Nanoliter Pipetting System by transferring 1 μl of serial diluted compounds to each well, and 1 mM acetylcholine (100× stock concentration) were added as a control. Using Temo, 49 μl assay buffer is added to each well of the 384-well plate right before assay.
In a 96-well Whatman 2 ml Uniplate, 9 nM Acetylcholine (3×) is pipetted into wells corresponding to the screening compounds, and into control wells. The 30 μM acetylcholine control (3×) is added into control wells, and the 3× agonist plate is transferred into a 384 well plate.
Cells are washed three times with 100 μL of buffer, leaving 30 μL of buffer in each well. Using Multimek, 30 μL of Dye Loading Buffer is added into each well and incubated at 37° C., 5% CO2 for up to one hr.
After 60 min, the cells are washed three times with 100 μL of buffer, leaving 30 μL of buffer in each well. The cell plate, screening plate, and agonist addition plates are placed on the platform in the FLIPR and the door closed. A signal test to check background fluorescence and basal fluorescence signal is performed. Laser intensity is adjusted if necessary. […]

[1] = CHOnfat/hM1 cells, 4 min preincubation, then EC20 acetylcholine (3 nM final), FLIPR Ca2+, read-out: IP Value (inflection point)

Compound	EC50	EC50 [1]
N#CC1(c2ccccc2)CCN(Cc2cc(C(=O)N[C@@H]3CCOC[C@H]3O)c(=O)n3ccccc23)CC1 [Example 9, 1-[(4-Cyano-4-phenylpiperidin-1-yl)methyl]-N-[(3S,4R)-3-hydroxytetrahydro-2H-pyran-4-yl]-4-oxo-4H-quinolizine-3-carboxamide]	530 nM	
N#CC1(c2ccccc2Br)CCN(Cc2cc(C(=O)N[C@H]3CCCC[C@@H]3O)c(=O)n3ccccc23)CC1 [Example 12]	24 nM	
N#CC1(c2ccccn2)CCN(Cc2cc(C(=O)NC3CCOCC3)c(=O)n3ccccc23)CC1 [Example 1, 1-[(4-Cyano-4-pyridin-2-ylpiperidin-1-yl)methyl]-4-oxo-4H—N-(tetrahydro-2H-pyran-4-yl)-4H-quinolizine-3-carboxamide]		340 nM
N#CC1(c2ccccn2)CCN(Cc2cc(C(=O)N[C@@H]3CCCCC3=O)c(=O)n3ccccc23)CC1 [Example 15, 1-[(4-Cyano-4-pyridin-2-ylpiperidin-1-yl)methyl]-4-oxo-N-[(1R)-2-oxocyclohexyl]-4H-quinolizine-3-carboxamide]		660 nM
O=C(N[C@H]1CCCC[C@@H]1O)c1cc(Cc2ccc(-n3cccn3)cn2)c2ccccn2c1=O [Example 4, N-[(1S,2S)-2-Hydroxycyclohexyl]-4-oxo-1-{[5-(1H-pyrazol-1-yl)pyridine-2-yl]methyl}-4H-quinolizine-3-carboxamide]		444 nM
CS[C@H]1CCCC[C@@H]1NC(=O)c1cc(CN2CCC(C#N)(c3ccccn3)CC2)c2ccccn2c1=O (racemic) [Example 16, rac-1-[(4-Cyano-4-pyridin-2-ylpiperidin-1-yl)methyl]-N-[(1R,2R)-2-(methylthio)cyclohexyl]-4-oxo-4H-quinolizine-3-carboxamide]		180 nM
N#CC1(c2cc(C(F)F)ccn2)CCN(Cc2cc(C(=O)N[C@H]3CCCC[C@@H]3O)c(=O)n3ccccc23)CC1 [Example 24, 1-({4-Cyano-4-[4-(difluoromethyl)pyridin-2-yl]piperidin-1-yl}methyl)-N-[(1S,2S)-2-hydroxycyclohexyl]-4-oxo-4H-quinolizine-3-carboxamide]	25 nM	
CS(=O)(=O)[C@H]1CCCC[C@@H]1NC(=O)c1cc(CN2CCC(C#N)(c3ccccn3)CC2)c2ccccn2c1=O (racemic) [Example 18, rac-1-[(4-Cyano-4-pyridin-2-ylpiperidin-1-yl)methyl]-N-[(1R,2R)-2-(methylsulfonyl)cyclohexyl]-4-oxo-4H-quinolizine-3-carboxamide]		800 nM
C[C@H]1COCC[C@@H]1NC(=O)c1cc(CN2CCC(C#N)(c3ccccn3)CC2)c2ccccn2c1=O (racemic) [Example 21, rac-1-[(4-Cyano-4-pyridin-2-ylpiperidin-1-yl)methyl]-N-[(3R,4S)-3-methyltetrahydro-2H-pyran-4-yl]-4-oxo-4H-quinolizine-3-carboxamide]		380 nM
N#CC1(c2cc(CF)ccn2)CCN(Cc2cc(C(=O)N[C@H]3CCCC[C@@H]3O)c(=O)n3ccccc23)CC1 [Example 23, 1-({4-Cyano-4-[4-(fluoromethyl)pyridine-2-yl]piperidin-1-yl}methyl)-N-[(1S,2S)-2-hydroxycyclohexyl]-4-oxo-4H-quinolizine-3-carboxamide]	34 nM	
N#CC1(c2ccccc2)CCN(Cc2cc(C(=O)N[C@H]3COCC[C@@H]3O)c(=O)n3ccccc23)CC1 [Example 11, 1-[(4-Cyano-4-phenylpiperidin-1-yl)methyl]-N-[(3S,4S)-4-hydroxytetrahydro-2H-pyran-3-yl]-4-oxo-4H-quinolizine-3-carboxamide]	560 nM	
N#CC1(c2ccccn2)CCN(Cc2cc(C(=O)NC3CCCNC3)c(=O)n3ccccc23)CC1 (centres unmarked) [Example 19, 1-[(4-Cyano-4-pyridin-2-ylpiperidin-1-yl)methyl]-4-oxo-N-piperidin-3-yl-4H-quinolizine-3-carboxamide]		1800 nM
C[C@]1(O)CCCC[C@@H]1NC(=O)c1cc(CN2CCC(C#N)(c3ccccn3)CC2)c2ccccn2c1=O (racemic) [Example 14, rac-1-[(4-Cyano-4-pyridin-2-ylpiperidin-1-yl)methyl]-N-[(1R,2R)-2-hydroxy-2-methylcyclohexyl]-4-oxo-4H-quinolizine-3-carboxamide]	93 nM	
C[S@@+]([O-])[C@H]1CCCC[C@@H]1NC(=O)c1cc(CN2CCC(C#N)(c3ccccn3)CC2)c2ccccn2c1=O (racemic) [Example 17, rac-1-[(4-Cyano-4-pyridin-2-ylpiperidin-1-yl)methyl]-N-{(1R,2R)-2-[(S)-methylsulfinyl]cyclohexyl}-4-oxo-4H-quinolizine-3-carboxamide]		2600 nM
COC(=O)N1CCC(NC(=O)c2cc(CN3CCC(C#N)(c4ccccn4)CC3)c3ccccn3c2=O)CC1 [Example 20, Methyl 4-[({1-[(4-cyano-4-pyridin-2-ylpiperidin-1-yl)methyl]-4-oxo-4H-quinolizin-3-yl}carbonyl)amino]piperidine-1-carboxylate]		600 nM
N#CC1(c2ccccn2)CCN(Cc2cc(C(=O)N[C@H]3CCCC[C@@H]3Br)c(=O)n3ccccc23)CC1 (racemic) [Example 13, rac-N-[(1R,2R)-2-Bromocyclohexyl)-1-[(4-cyano-4-pyridin-2-ylpiperidin-1-yl)methyl]-4-oxo-4H-quinolizine-3-carboxamide]		480 nM
O=C(N[C@H]1CCCC[C@@H]1O)c1cc(CN2CCN(c3ccc(C(F)F)nc3)CC2)c2ccccn2c1=O [Example 5, 1-({4-[6-(Difluoromethyl)pyridine-3-yl]piperazin-1-yl}methyl)-N-[(1S,2S)-2-hydroxycyclohexyl]-4-oxo-4H-quinolizine-3-carboxamide]		210 nM
N#CC1(c2ccccn2)CCN(Cc2cc(C(=O)N[C@H]3CCOC[C@@H]3O)c(=O)n3ccccc23)CC1 (racemic) [Example 7, rac-1-[(4-Cyano-4-pyridin-2-ylpiperidin-1yl)methyl]-N-[(3R,4S)-3-hydroxytetrahydro-2H-pyran-4-yl]-4-oxo-4H-quinolizine-3-carboxamide]	25 nM	
N#Cc1ccnc(C2(C#N)CCN(Cc3cc(C(=O)N[C@H]4CCCC[C@@H]4O)c(=O)n4ccccc34)CC2)c1 [Example 22, 1-{[4-Cyano-4-(4-cyanopyridin-2-yl)piperidin-1-yl]methyl}-N-[(1S,2S)-2-hydroxycyclohexyl]-4-oxo-4H-quinolizine-3-carboxamide]		280 nM
Cn1cc(N2CCN(Cc3cc(C(=O)N[C@H]4CCCC[C@@H]4O)c(=O)n4ccccc34)CC2=O)cn1 [Example 6, N-[(1S,2S)-2-Hydroxycyclohexyl]-1-{[4-(1-methyl-1H-pyrazol-4-yl)-3-oxopiperazin-1-yl]methyl}-4-oxo-4H-quinolizine-3-carboxylate]		170 nM
